Assay results reported in patent US7939513B2, “Tetracycline derivatives as antibacterial agents” (Dr. Reddy's Laboratories Limited, priority 2007, dated 2011).
Values after ≈ are worked out from the molar mass of the structure shown. Structures can show the parent of a compound that is named as a salt. Where two headings read alike, the source gives them in different places.

How the values were obtained:
[1] = tested on: E. coli DRCC 018 ATCC 25922; test: In vitro MIC by broth microdilution; assay type: cell-based; conditions: Escherichia coli, ATCC25922
Protocol: (§1) Minimum Inhibition Concentrations (MICs) were determined by broth microdilution technique as per the guidelines prescribed in the fifth edition of Approved Standards NCCLS document M7-A5 Vol 20-No 2, 2000 Villinova, Pa. (Currently Clinical and Laboratory Standards Institute (CLSI)). Initial stock solution of the compound of formula (I) was prepared in DMSO. Subsequent two fold dilutions were carried out in sterile Cation adjusted Muller Hinton Broth (Difco) (MHB). Frozen cultures stocks were inoculated in 25 ml sterile MHB in 50 ml Erlyn Meyer flasks.
(§2) Composition of MHB is as follows: Beef Extract Powder—2.0 grams/litre, Acid Digest of Casein—17.5 grams/litre, Soluble Starch—1.5 grams/litre, Final pH 7.3±0.1
(§3) Flasks were incubated for 4 to 5 hours at 36±1° C. on a rotary shaker at 110 rpm. Inoculum was prepared by diluting the culture in sterile MHB to obtain a turbidity of 0.5 McFarland standard. This corresponds to 1−2×10^8 CFU/mL. The stock was further diluted to achieve a final inoculum density of 5×10^4 to 1×10^5 CFU/well. The plates were incubated 18 to 20 hours at 37° C.

[2] = tested on: E. faecalis DRCC 034 VSE ATCC 29212; test: In vitro MIC by broth microdilution; assay type: cell-based; conditions: Enterococcus faecalis, ATCC29212
Protocol: as §1, §2, §3

[3] = tested on: E. faecalis DRCC 153 VRE NCTC 12201; test: In vitro MIC by broth microdilution; assay type: cell-based; conditions: Enterococcus faecalis
Protocol: as §1, §2, §3

[4] = tested on: E. faecium DRCC 154 VRE NCTC 12202; test: In vitro MIC by broth microdilution; assay type: cell-based; conditions: Enterococcus faecium
Protocol: as §1, §2, §3

[5] = tested on: K. pn DRCC 575 ATCC 700603; test: In vitro MIC by broth microdilution; assay type: cell-based; conditions: Klebsiella pneumoniae, ATCC700603
Protocol: as §1, §2, §3

[6] = tested on: P. aeru DRCC 024 ATCC 27853; test: In vitro MIC by broth microdilution; assay type: cell-based; conditions: Pseudomonas aeruginosa, ATCC27853
Protocol: as §1, §2, §3

[7] = tested on: S. aureus DRCC 019 MRSA ATCC 33591; test: In vitro MIC by broth microdilution; assay type: cell-based; conditions: Staphylococcus aureus
Protocol: as §1, §2, §3

[8] = tested on: S. aureus DRCC 035 MSSA ATCC 29213; test: In vitro MIC by broth microdilution; assay type: cell-based; conditions: Staphylococcus aureus
Protocol: as §1, §2, §3

[9] = tested on: E faecalis DRCC 543; test: ED50 in murine systemic infection model; assay type: in vivo; conditions: Enterococcus faecalis, 120 h, Swiss Albino Mice, survival 5 days
Protocol: (§4) Animals: Specific pathogen free outbred, female and male Swiss Albino Mice, 4-6 weeks old, weighing 25±2 grams.
(§5) Inoculum Preparation: • Systemic infection model is performed based on LD50 of an organism. 10-1000×LD50 or 1-5 MLD (minimum lethal dose) is used as an infecting inoculum. • Organisms are sub-cultured on blood agar plates and incubated at 35-37° C. for 18-24 hours. Inoculum is prepared in 0.9% normal saline and optical density adjusted at 560 nm to yield an inoculum density of 10^5 to 10^9CFU/mL based on the test organism. • Adjusted inoculum is further diluted 1:1 in mucin solution to achieve a final mucin concentration of 5-7.5% (wt/vol). • Log CFUs of inoculum is determined by serially diluting the inoculum in normal saline and plating on suitable agar plates. Plates are incubated at 35-37° C. for 18-24 hours and counts determined.
(§6) Infection: • Animals are infected with 0.5 ml of inoculum by intra-peritoneal route. • Two groups of mice left untreated, serve as untreated control.
(§7) Treatment: • For single dose, compound of formula (I) is administered at 0 to 3 hour post-infection by p.o./s.c./i.v. route. • For b.i.d., compound of formula (I) administered at 0 to 3 hour post-infection for first dose and at 4 to 6 hours post-infection for second dose by p.o./s.c./i.v. route.
(§8) End point: Survival/death in each treated and untreated groups are monitored for 5 days (7 days for S. pneumoniae). The ED50 values are determined by probit analysis.

[10] = tested on: E. Coli ATCC 25992; test: ED50 in murine systemic infection model; assay type: in vivo; conditions: Escherichia coli, 120 h, Swiss Albino Mice, survival 5 days
Protocol: as §4, §5, §6, §7, §8

[11] = tested on: MRSA DRCC 446; test: ED50 in murine systemic infection model; assay type: in vivo; conditions: Staphylococcus aureus, 120 h, Swiss Albino Mice, survival 5 days
Protocol: as §4, §5, §6, §7, §8

[12] = tested on: S. aureus DRCC 035 (ATCC 29213); test: ED50 in murine systemic infection model; assay type: in vivo; conditions: Staphylococcus aureus, 120 h, Swiss Albino Mice, survival 5 days
Protocol: as §4, §5, §6, §7, §8

[13] = tested on: S. pneumoniae ATCC 49619; test: ED50 in murine systemic infection model; assay type: in vivo; conditions: Streptococcus pneumoniae, 168 h, Swiss Albino Mice, survival 7 days
Protocol: as §4, §5, §6, §7, §8

[14] = E. coli DRCC 018, ATCC 25922, read-out: MIC
[15] = E. faecalis DRCC 034, VSE, ATCC 29212, read-out: MIC
[16] = E. faecalis DRCC 153, VRE, NCTC 12201, read-out: MIC
[17] = E. faecium DRCC 154, VRE, NCTC 12202, read-out: MIC
[18] = K. pn DRCC 575, ATCC 700603, read-out: MIC
[19] = P. aeru DRCC 024, ATCC 27853, read-out: MIC
[20] = S. aureus DRCC 019, MRSA, ATCC 33591, read-out: MIC
[21] = S. aureus DRCC 035, MSSA, ATCC 29213, read-out: MIC

| Compound | MIC [1, 14] | MIC [2, 15] | MIC [3, 16] | MIC [4, 17] | MIC [5, 18] | MIC [6, 19] | MIC [7, 20] | MIC [8, 21] | also measured |
| --- | --- | --- | --- | --- | --- | --- | --- | --- | --- |
| CN(C)c1cc(NC(=O)[C@@H]2CCCN2C)c(O)c2c1C[C@H]1C[C@H]3[C@H](N(C)C)C(O)=C(C(N)=O)C(=O)[C@@]3(O)C(O)=C1C2=O [Example 2, (S)—N-((5aR,6aS,7S,10aS)-9-carbamoyl-4,7-bis(dimethylamino)-1,8,10a,11-tetrahydroxy-10,12-dioxo-5,5a,6,6a,7,10,10a,12-octahydrotetracen-2-yl)-1-methylpyrrolidine-2-carboxamide] | 0.12 µg/mL (≈ 0.206 µM) | 0.03 µg/mL (≈ 0.0514 µM) | 0.03 µg/mL (≈ 0.0514 µM) | 0.01 µg/mL (≈ 0.0171 µM) | 8 µg/mL (≈ 13.7 µM) | 16 µg/mL (≈ 27.4 µM) | 0.25 µg/mL (≈ 0.428 µM) | 0.12 µg/mL (≈ 0.206 µM) | ED50 ([9]; DRCC543, iv, E faecalis DRCC 543, i.v.-q.d.): 0.28 mg/kg; ED50 ([9]; DRCC543, po, E faecalis DRCC 543, p.o.-b.i.d.): 2.53 mg/kg; ED50 ([10]; ATCC25992, iv, E. Coli ATCC 25992, i.v.-q.d.): 0.5 mg/kg; ED50 ([10]; ATCC25992, po, E. Coli ATCC 25992, p.o.-b.i.d.): 12.6 mg/kg; ED50 ([11]; iv, MRSA DRCC 446, i.v.-q.d.): 0.77 mg/kg; ED50 ([11]; po, MRSA DRCC 446, p.o.-b.i.d.): 7.3 mg/kg; ED50 ([12]; ATCC29213, iv, i.v.-q.d.): 0.6 mg/kg; ED50 ([12]; ATCC29213, po, p.o.-b.i.d.): 5.5 mg/kg; ED50 ([13]; ATCC49619, iv, S. pneumoniae ATCC 49619, i.v.-q.d.): 0.16 mg/kg; ED50 ([13]; ATCC49619, po, S. pneumoniae ATCC 49619, p.o.-b.i.d.): 6.2 mg/kg |
| CCN1CCC[C@H]1C(=O)Nc1cc(N(C)C)c2c(c1O)C(=O)C1=C(O)[C@]3(O)C(=O)C(C(N)=O)=C(O)[C@@H](N(C)C)[C@@H]3C[C@@H]1C2 [Example 3, (S)—N-((5aR,6aS,7S,10aS)-9-carbamoyl-4,7-bis(dimethylamino)-1,8,10a,11-tetrahydroxy-10,12-dioxo-5,5a,6,6a,7,10,10a,12-octahydrotetracen-2-yl)-1-ethylpyrrolidine-2-carboxamide] | 0.5 µg/mL (≈ 0.837 µM) | 0.12 µg/mL (≈ 0.201 µM) | 0.12 µg/mL (≈ 0.201 µM) | 0.06 µg/mL (≈ 0.1 µM) | 16 µg/mL (≈ 26.8 µM) | > 32 µg/mL | 0.5 µg/mL (≈ 0.837 µM) | 0.5 µg/mL (≈ 0.837 µM) | – |
| CC(C)CN1CCC[C@H]1C(=O)Nc1cc(N(C)C)c2c(c1O)C(=O)C1=C(O)[C@]3(O)C(=O)C(C(N)=O)=C(O)[C@@H](N(C)C)[C@@H]3C[C@@H]1C2 [Example 7, (S)—N-((5aR,6aS,7S,10aS)-9-carbamoyl-4,7-bis(dimethylamino)-1,8,10a,11-tetrahydroxy-10,12-dioxo-5,5a,6,6a,7,10,10a,12-octahydrotetracen-2-yl)-1-isobutylpyrrolidine-2-carboxamide dihydrochloride] | – | – | – | – | – | – | – | – | MIC [1]: 4 µg/mL; MIC [2]: 0.5 µg/mL; MIC [3]: 1 µg/mL; MIC [4]: 0.5 µg/mL; MIC [5]: 128 µg/mL; MIC [6]: 64 µg/mL; MIC [7]: 2 µg/mL; MIC [8]: 2 µg/mL |
| CCCN1CCC[C@H]1C(=O)Nc1cc(N(C)C)c2c(c1O)C(=O)C1=C(O)[C@]3(O)C(=O)C(C(N)=O)=C(O)[C@@H](N(C)C)[C@@H]3C[C@@H]1C2 [Example 4, (S)—N-((5aR,6aS,7S,10aS)-9-carbamoyl-4,7-bis(dimethylamino)-1,8,10a,11-tetrahydroxy-10,12-dioxo-5,5a,6,6a,7,10,10a,12-octahydrotetracen-2-yl)-1-propylpyrrolidine-2-carboxamide] | 2 µg/mL (≈ 3.27 µM) | 0.25 µg/mL (≈ 0.409 µM) | 0.5 µg/mL (≈ 0.817 µM) | 0.12 µg/mL (≈ 0.196 µM) | > 32 µg/mL | > 32 µg/mL | 1 µg/mL (≈ 1.63 µM) | 1 µg/mL (≈ 1.63 µM) | – |
